ChEMBL document CHEMBL5625232, “Development of selective class I protein arginine methyltransferase inhibitors through fragment-based drug design approach” (Eur J Med Chem, 2023)
Calls of active or inactive are those of the source. The calls are words filed in the database; no cut-off is given here.

Experiments:
[1] = target: T1, Protein arginine N-methyltransferase 6 (Homo sapiens, UniProt Q96LA8); experiment: Displacement of 3H-SAM from human PRMT6 in presence of substrate by SPA assay
Target sequence in this assay (Q96LA8 whole entry): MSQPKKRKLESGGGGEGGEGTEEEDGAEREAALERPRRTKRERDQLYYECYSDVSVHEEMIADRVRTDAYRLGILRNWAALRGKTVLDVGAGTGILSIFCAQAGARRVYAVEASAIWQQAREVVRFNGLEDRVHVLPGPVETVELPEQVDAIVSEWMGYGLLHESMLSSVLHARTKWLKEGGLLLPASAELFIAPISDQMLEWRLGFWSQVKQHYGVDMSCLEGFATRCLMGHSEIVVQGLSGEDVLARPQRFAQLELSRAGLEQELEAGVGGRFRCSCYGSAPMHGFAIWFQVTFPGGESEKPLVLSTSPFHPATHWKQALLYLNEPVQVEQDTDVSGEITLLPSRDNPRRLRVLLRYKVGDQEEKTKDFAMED

[2] = target: T2, Protein arginine N-methyltransferase 9 (Homo sapiens) (UniProt Q6P2P2); experiment: Displacement of 3H-SAM from human PRMT9 at 10 uM in presence of substrate by SPA assay
T2 sequence (whole entry): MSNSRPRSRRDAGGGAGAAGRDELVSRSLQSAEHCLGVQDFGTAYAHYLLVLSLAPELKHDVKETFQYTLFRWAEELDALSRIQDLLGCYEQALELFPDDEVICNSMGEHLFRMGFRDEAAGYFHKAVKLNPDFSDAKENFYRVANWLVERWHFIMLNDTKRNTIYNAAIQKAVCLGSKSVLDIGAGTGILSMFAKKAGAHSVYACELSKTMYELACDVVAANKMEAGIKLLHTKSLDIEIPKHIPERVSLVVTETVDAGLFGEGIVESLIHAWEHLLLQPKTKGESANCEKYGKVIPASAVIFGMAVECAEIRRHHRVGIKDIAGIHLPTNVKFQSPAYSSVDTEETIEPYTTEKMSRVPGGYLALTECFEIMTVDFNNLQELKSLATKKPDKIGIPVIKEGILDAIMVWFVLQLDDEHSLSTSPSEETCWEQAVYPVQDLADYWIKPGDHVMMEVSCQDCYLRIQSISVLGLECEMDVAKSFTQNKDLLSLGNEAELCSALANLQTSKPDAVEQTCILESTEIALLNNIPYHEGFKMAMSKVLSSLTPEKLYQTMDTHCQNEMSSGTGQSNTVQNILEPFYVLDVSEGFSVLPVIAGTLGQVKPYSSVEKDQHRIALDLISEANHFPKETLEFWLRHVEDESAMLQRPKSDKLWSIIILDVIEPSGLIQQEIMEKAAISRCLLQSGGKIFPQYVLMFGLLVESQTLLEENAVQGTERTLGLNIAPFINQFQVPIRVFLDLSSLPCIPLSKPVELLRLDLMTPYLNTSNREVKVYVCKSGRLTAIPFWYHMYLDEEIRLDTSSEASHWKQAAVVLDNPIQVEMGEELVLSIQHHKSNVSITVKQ

[3] = target: T3, Protein arginine N-methyltransferase 8 (Homo sapiens, UniProt Q9NR22); experiment: Displacement of 3H-SAM from human PRMT8 in presence of substrate by SPA assay
Target sequence in this assay (Q9NR22 whole entry): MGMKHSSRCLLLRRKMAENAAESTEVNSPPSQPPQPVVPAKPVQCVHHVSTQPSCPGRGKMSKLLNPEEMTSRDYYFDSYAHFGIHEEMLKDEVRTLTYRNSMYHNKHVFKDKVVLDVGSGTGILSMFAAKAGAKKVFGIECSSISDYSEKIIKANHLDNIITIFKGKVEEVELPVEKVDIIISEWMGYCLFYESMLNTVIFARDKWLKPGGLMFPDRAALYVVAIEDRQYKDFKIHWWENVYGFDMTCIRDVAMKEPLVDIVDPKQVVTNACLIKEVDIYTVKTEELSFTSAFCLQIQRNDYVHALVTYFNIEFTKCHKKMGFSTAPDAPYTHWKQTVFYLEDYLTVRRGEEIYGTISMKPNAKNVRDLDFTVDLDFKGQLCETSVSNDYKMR

[4] = target: T4, Protein arginine N-methyltransferase 3 (Homo sapiens, UniProt O60678); experiment: Displacement of 3H-SAM from human PRMT3 at 10 uM in presence of substrate by SPA assay
Target sequence in this assay (O60678 2-531 limits assumed): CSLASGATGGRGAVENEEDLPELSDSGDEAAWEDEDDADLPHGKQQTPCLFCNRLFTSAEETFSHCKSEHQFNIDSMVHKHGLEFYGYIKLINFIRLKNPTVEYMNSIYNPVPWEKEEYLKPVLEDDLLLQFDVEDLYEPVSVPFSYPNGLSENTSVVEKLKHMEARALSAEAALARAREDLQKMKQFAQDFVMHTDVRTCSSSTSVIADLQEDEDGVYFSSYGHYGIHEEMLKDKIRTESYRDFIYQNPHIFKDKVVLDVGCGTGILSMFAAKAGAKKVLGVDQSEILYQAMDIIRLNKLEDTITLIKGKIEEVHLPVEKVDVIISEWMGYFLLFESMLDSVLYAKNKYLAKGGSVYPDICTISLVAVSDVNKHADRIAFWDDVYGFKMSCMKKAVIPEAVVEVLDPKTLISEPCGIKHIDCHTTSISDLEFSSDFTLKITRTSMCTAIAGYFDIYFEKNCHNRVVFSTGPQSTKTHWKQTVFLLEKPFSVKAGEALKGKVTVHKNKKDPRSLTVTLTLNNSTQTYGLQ

[5] = target: T5, Histone-arginine methyltransferase CARM1 (Homo sapiens) (UniProt Q86X55); experiment: Displacement of 3H-SAM from human PRMT4 at 10 uM in presence of substrate by SPA assay
T5 sequence (whole entry): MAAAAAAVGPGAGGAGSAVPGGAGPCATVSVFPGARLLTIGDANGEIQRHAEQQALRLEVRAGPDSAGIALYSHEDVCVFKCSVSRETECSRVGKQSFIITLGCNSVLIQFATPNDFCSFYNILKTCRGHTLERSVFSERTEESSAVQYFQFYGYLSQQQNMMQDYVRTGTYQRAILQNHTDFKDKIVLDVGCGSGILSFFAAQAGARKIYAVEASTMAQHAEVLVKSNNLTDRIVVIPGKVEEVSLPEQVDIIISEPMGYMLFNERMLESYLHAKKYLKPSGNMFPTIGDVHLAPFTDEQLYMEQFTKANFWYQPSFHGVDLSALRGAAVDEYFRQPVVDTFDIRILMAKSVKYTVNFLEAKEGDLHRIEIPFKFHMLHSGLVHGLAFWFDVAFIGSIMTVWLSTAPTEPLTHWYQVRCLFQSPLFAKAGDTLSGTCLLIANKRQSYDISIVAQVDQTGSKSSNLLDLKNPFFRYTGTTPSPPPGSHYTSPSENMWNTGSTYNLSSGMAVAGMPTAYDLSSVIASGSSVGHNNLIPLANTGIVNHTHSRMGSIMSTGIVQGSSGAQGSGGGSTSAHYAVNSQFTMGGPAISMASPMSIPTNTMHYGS

[6] = target: T6, Histone-arginine methyltransferase CARM1 (Homo sapiens, UniProt Q86X55); experiment: Displacement of 3H-SAM from human PRMT4 in presence of substrate by SPA assay
T6 sequence (Q86X55 whole entry): T5 sequence (whole entry)

[7] = target: T4, Protein arginine N-methyltransferase 3; experiment: Displacement of 3H-SAM from human PRMT3 in presence of substrate by SPA assay
Target sequence in this assay (O60678 whole entry): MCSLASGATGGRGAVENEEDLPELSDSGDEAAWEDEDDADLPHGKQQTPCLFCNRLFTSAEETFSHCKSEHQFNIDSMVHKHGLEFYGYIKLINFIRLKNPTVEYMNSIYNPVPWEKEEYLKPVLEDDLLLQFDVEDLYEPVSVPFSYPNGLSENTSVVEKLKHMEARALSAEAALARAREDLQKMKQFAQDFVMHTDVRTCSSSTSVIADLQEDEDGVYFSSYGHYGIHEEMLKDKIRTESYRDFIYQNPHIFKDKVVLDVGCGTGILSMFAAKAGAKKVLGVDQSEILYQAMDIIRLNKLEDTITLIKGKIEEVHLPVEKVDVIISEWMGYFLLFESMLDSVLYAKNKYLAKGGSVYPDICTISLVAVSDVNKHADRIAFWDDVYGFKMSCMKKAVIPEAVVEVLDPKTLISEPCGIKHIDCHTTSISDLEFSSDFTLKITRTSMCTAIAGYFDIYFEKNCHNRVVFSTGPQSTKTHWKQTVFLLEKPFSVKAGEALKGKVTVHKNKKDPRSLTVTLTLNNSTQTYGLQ

[8] = target: T7, Protein arginine N-methyltransferase 7 (Homo sapiens) (UniProt Q9NVM4); experiment: Displacement of 3H-SAM from human PRMT7 at 10 uM in presence of substrate by SPA assay
T7 sequence (whole entry): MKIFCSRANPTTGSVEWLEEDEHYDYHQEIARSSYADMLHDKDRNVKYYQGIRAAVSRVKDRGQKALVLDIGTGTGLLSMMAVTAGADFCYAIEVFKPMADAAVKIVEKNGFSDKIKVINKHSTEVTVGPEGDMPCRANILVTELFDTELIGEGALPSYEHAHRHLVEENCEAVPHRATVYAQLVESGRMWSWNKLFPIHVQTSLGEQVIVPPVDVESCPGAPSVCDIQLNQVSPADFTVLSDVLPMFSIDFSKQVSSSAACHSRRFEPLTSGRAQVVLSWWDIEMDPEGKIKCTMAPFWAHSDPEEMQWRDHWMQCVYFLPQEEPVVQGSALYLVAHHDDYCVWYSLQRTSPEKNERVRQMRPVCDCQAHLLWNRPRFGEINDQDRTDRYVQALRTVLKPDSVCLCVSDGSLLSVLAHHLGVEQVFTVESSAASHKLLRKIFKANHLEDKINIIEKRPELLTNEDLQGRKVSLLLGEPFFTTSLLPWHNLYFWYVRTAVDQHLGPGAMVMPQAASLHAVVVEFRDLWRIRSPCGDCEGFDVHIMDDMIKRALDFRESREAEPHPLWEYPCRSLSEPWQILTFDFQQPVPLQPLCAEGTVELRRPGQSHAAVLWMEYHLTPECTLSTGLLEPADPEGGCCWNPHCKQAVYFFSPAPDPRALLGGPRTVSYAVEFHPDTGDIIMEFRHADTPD

[9] = target: Protein arginine N-methyltransferase 5 (Homo sapiens) (UniProt O14744); experiment: Displacement of 3H-SAM from human PRMT5 at 10 uM in presence of substrate by SPA assay
[10] = target: T1, Protein arginine N-methyltransferase 6; experiment: Displacement of 3H-SAM from human PRMT6 at 10 uM in presence of substrate by SPA assay
Target sequence in this assay (Q96LA8 whole entry, looked up): as the sequence (Q96LA8 whole entry) above

[11] = target: T3, Protein arginine N-methyltransferase 8; experiment: Displacement of 3H-SAM from human PRMT8 at 10 uM in presence of substrate by SPA assay
Target sequence in this assay (Q9NR22 2-394 limits assumed): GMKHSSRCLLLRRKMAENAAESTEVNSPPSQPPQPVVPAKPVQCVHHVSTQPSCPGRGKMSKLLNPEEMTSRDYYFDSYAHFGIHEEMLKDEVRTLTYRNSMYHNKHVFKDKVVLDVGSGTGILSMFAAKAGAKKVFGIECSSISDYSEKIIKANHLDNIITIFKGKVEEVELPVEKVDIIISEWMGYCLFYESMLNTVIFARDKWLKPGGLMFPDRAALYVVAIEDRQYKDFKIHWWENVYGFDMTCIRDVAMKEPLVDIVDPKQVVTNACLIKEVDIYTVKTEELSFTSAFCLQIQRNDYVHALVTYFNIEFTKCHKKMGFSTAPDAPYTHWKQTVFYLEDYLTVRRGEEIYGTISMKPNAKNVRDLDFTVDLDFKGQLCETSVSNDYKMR

Chain of Protein arginine N-methyltransferase 5 (Homo sapiens) (O14744 whole entry): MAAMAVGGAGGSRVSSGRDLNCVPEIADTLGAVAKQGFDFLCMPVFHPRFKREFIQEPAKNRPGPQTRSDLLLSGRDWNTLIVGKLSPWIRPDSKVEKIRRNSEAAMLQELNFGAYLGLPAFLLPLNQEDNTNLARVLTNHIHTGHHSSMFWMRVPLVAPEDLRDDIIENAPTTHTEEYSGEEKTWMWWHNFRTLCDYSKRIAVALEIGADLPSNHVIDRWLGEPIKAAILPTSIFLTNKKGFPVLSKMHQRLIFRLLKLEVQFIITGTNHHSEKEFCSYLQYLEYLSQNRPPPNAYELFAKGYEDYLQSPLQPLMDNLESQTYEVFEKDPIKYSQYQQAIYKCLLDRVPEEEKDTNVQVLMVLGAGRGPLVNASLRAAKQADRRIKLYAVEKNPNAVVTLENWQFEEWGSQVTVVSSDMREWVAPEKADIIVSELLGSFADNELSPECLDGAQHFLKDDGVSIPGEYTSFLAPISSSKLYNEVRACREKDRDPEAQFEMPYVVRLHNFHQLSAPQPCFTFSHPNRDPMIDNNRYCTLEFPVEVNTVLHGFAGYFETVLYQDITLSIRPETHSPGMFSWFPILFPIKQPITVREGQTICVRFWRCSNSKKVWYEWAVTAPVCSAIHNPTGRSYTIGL

| IC50 [1] [µM] | inhibition [2] | IC50 [3] [µM] | inhibition [4] | inhibition [5] | IC50 [6] [µM] | IC50 [7] [µM] | inhibition [8] | inhibition [9] | inhibition [10] | inhibition [11] | Structure (SMILES) |
| --- | --- | --- | --- | --- | --- | --- | --- | --- | --- | --- | --- |
| 703 | Active | 2430 | Active | Active | 80 | 3120 | Active | Active | Active | Active | CNCCN1CCC(NC(=O)c2ccc3c(Nc4ccc(CN)cc4)ncnc3c2)C1 (racemic) |
| 253 | Active | 794 | Active | Active | 37 | 3570 | Active | Active | Active | Active | CNCCN1CC[C@@H](NC(=O)c2ccc3c(Nc4ccc(CN)cc4)ncnc3c2)C1 |
| 436 | Active | 823 | Active | Active | 92 | 1390 | Active | Active | Active | Active | CNCCN1CC[C@H](NC(=O)c2ccc3c(Nc4ccc(CN)cc4)ncnc3c2)C1 |
